Laboratory results from publication PMC12373846, “Hemoglobin as a pseudoperoxidase and drug target for oxidative stress-related diseases” (Signal Transduction and Targeted Therapy, 2025).
Where “and” joins values, the source holds several entries; their conditions need not be identical. Identical values can stand only once. Like-named read-outs stand apart in the source and are kept apart here.

Legend:
Test in all cases: SafetyScreen87 panel
[1] = test system: glycine (strychnine-insensitive) (antagonist radioligand); settings: 1.0E-06 M; read-out: % Inhibition of Control Specific Binding (1st, 2nd, Mean)
Method: (§1) The possibility of KDS12025 on kinase off-target, the KINOMEscan panel of scanEDGE assay was conducted in DiscoverX (CA, USA) using a site-directed competition binding with the test compounds. The assay results are given in Supplementary Table 4 and experimental information is available on the DiscoverX web page (www.discoverx.com). Moreover, the Delta SafetyScreen87 panel assay was conducted in Eurofins Discovery (Cerep, France). The assay results are given in Supplementary Table 5 and experimental information is available on the DiscoverX web page (https://www.eurofinsdiscoveryservices.com).

[2] = molecular target: T1, CCK2 (CCKB) (h) (agonist radioligand) (Homo sapiens, UniProt P32239)
T1 construct: purchased DiscoverX KINOMEscan scanEDGE; Eurofins Cerep SafetyScreen87
T1 sequence (P32239 whole entry): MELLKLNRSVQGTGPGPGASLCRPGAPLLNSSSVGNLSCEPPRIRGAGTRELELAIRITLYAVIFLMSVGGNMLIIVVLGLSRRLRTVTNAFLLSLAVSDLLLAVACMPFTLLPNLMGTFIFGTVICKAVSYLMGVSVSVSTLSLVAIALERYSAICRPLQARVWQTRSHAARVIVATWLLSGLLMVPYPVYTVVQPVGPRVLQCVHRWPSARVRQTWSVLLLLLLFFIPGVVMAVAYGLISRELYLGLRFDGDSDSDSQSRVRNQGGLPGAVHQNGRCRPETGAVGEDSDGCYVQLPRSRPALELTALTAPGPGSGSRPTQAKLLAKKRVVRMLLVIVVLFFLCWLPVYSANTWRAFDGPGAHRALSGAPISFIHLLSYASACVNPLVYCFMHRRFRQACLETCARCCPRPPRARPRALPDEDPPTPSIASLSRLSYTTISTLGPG
Method: as §1

[3] = molecular target: T2, ETA (h) (agonist radioligand) (Homo sapiens, UniProt P25101)
T2 construct: purchased DiscoverX KINOMEscan scanEDGE; Eurofins Cerep SafetyScreen87
Method: as §1

[4] = test system: KV channel (antagonist radioligand); settings: 1.0E-06 M, read-out: % Inhibition of Control Specific Binding (1st, 2nd, Mean)
Method: as §1

[5] = molecular target: T3, adenosine transporter (antagonist radioligand) (Cavia porcellus, UniProt H0V4R7)
T3 construct: Eurofins Discovery (Cerep, France) SafetyScreen87 panel
Method: as §1

[6] = molecular target: T4, M1 (h) (antagonist radioligand) (Homo sapiens, UniProt P11229); settings: 1.0E-06 M; mean; read-out: % Inhibition of Control Specific Binding (1st, 2nd, Mean)
T4 construct: purchased DiscoverX KINOMEscan scanEDGE; Eurofins Cerep SafetyScreen87
Method: as §1

[7] = molecular target: T5, alpha 1D (h) (antagonist radioligand) (Homo sapiens, UniProt P25100); settings: 1.0E-06 M, read-out: % Inhibition of Control Specific Binding (1st, 2nd, Mean)
T5 construct: purchased DiscoverX KINOMEscan scanEDGE; Eurofins Cerep SafetyScreen87
T5 sequence (P25100 whole entry): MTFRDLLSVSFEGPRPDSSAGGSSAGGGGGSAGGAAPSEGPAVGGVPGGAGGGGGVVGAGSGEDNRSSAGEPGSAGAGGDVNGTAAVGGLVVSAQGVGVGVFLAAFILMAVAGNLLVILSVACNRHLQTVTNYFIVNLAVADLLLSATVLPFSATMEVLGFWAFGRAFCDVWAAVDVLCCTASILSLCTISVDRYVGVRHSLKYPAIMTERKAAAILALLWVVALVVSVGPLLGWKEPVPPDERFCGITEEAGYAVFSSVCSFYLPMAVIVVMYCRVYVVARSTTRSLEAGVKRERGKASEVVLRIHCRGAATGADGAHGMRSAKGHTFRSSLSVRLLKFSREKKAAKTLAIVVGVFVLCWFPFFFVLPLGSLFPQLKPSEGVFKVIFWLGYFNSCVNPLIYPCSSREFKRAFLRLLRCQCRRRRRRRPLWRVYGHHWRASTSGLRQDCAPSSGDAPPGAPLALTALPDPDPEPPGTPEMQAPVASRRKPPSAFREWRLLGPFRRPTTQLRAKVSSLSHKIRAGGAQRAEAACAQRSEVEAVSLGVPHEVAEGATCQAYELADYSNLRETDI
Method: as §1

[8] = molecular target: T6, GR (h) (agonist radioligand) (Homo sapiens, UniProt P04150); settings: 1.0E-06 M; mean; read-out: % Inhibition of Control Specific Binding (1st, 2nd, Mean)
T6 construct: purchased DiscoverX KINOMEscan scanEDGE; Eurofins Cerep SafetyScreen87
Method: as §1

[9] = molecular target: T7, N muscle-type (h) (antagonist radioligand) (Homo sapiens, UniProt P02708+P07510+Q07001); settings: 1.0E-06 M; mean; read-out: % Inhibition of Control Specific Binding (1st, 2nd, Mean)
T7 construct: purchased DiscoverX KINOMEscan scanEDGE; Eurofins Cerep SafetyScreen87
Method: as §1

[10] = molecular target: T8, M2 (h) (antagonist radioligand) (Homo sapiens, UniProt P08172); settings: 1.0E-06 M; mean; read-out: % Inhibition of Control Specific Binding (1st, 2nd, Mean)
T8 construct: purchased DiscoverX KINOMEscan scanEDGE; Eurofins Cerep SafetyScreen87
Method: as §1

[11] = molecular target: T9, 5-HT2C (h) (antagonist radioligand) (Homo sapiens, UniProt P28335); settings: 1.0E-06 M; mean; read-out: % Inhibition of Control Specific Binding (1st, 2nd, Mean)
T9 construct: purchased DiscoverX KINOMEscan scanEDGE; Eurofins Cerep SafetyScreen87
Method: as §1

[12] = test system: AMPA (agonist radioligand); settings: 1.0E-06 M, read-out: % Inhibition of Control Specific Binding (1st, 2nd, Mean)
Method: as §1

[13] = molecular target: T10, GABAB(1b) (h) (antagonist radioligand) (Homo sapiens, UniProt Q9UBS5); settings: 1.0E-06 M, read-out: % Inhibition of Control Specific Binding (1st, 2nd, Mean)
T10 construct: purchased DiscoverX KINOMEscan scanEDGE; Eurofins Cerep SafetyScreen87
T10 sequence (Q9UBS5 1-844 isoform Q9UBS5-2): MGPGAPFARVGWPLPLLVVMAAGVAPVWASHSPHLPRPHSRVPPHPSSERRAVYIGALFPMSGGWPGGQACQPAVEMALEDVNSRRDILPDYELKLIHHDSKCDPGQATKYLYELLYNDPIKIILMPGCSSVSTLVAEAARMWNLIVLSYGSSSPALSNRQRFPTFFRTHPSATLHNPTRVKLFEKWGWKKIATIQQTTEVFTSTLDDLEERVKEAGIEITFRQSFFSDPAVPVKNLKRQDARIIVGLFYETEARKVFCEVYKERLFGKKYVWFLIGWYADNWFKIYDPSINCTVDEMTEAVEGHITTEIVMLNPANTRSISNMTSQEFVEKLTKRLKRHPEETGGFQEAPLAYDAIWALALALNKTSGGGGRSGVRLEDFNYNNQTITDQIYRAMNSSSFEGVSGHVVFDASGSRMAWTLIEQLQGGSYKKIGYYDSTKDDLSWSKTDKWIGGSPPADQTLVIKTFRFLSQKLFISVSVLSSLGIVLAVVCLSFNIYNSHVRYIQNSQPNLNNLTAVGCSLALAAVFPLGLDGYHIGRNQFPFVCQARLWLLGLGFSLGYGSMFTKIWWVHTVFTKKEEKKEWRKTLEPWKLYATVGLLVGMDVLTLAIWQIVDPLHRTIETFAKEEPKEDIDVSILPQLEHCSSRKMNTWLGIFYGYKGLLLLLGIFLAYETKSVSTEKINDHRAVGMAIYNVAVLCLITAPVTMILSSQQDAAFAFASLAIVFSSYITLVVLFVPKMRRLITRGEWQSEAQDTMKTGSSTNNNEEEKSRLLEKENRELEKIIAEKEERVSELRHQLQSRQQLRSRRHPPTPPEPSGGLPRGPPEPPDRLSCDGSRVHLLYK
Method: as §1

[14] = molecular target: T11, Potassium Channel hERG (human)- [3H] Dofetilide (Homo sapiens, UniProt Q12809); settings: 1.0E-06 M, read-out: % Inhibition of Control Specific Binding (1st, 2nd, Mean)
T11 construct: Eurofins Discovery (Cerep, France) SafetyScreen87 panel
Method: as §1

[15] = molecular target: T12, D2L (h) (antagonist radioligand) (Homo sapiens, UniProt P14416); settings: 1.0E-06 M, read-out: % Inhibition of Control Specific Binding (1st, 2nd, Mean)
T12 construct: purchased DiscoverX KINOMEscan scanEDGE; Eurofins Cerep SafetyScreen87
T12 sequence (P14416 whole entry): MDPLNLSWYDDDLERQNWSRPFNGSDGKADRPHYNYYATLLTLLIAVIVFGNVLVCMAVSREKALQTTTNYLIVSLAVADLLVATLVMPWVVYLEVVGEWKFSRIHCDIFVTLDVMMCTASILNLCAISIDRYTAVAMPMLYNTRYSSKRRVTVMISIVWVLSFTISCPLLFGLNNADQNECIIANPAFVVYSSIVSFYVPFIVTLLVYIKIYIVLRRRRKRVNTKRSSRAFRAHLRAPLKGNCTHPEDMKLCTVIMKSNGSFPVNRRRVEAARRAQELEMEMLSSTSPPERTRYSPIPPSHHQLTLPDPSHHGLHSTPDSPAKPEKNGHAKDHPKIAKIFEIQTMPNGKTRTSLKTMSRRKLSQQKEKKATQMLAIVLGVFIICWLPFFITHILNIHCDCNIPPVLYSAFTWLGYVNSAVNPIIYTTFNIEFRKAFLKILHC
Method: as §1

[16] = molecular target: T13, kappa (h) (KOP) (agonist radioligand) (Homo sapiens, UniProt P41145); settings: 1.0E-06 M; mean; read-out: % Inhibition of Control Specific Binding (1st, 2nd, Mean)
T13 construct: purchased DiscoverX KINOMEscan scanEDGE; Eurofins Cerep SafetyScreen87
Method: as §1

[17] = molecular target: T14, alpha 1B (h) (antagonist radioligand) (Homo sapiens, UniProt P35368); settings: 1.0E-06 M, read-out: % Inhibition of Control Specific Binding (1st, 2nd, Mean)
T14 construct: purchased DiscoverX KINOMEscan scanEDGE; Eurofins Cerep SafetyScreen87
T14 sequence (P35368 whole entry): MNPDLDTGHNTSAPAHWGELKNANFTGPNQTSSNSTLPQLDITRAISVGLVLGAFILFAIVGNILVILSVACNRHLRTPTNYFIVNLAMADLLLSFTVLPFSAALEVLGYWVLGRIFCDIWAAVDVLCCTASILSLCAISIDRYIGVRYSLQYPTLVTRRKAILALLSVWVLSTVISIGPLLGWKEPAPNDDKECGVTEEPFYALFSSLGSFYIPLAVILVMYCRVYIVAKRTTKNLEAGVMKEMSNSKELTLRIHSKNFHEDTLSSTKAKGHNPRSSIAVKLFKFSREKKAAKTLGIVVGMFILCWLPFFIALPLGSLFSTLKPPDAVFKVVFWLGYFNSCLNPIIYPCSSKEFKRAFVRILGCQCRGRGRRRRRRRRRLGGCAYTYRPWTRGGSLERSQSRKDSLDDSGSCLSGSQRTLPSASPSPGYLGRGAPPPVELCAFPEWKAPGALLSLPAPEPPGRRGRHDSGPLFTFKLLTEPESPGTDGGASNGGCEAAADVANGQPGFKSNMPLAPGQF
Method: as §1

[18] = molecular target: T15, dopamine transporter (h) (antagonist radioligand) (Homo sapiens, UniProt Q01959); settings: 1.0E-06 M, read-out: % Inhibition of Control Specific Binding (1st, 2nd, Mean)
T15 construct: Eurofins Discovery (Cerep, France) SafetyScreen87 panel
T15 sequence (Q01959 whole entry): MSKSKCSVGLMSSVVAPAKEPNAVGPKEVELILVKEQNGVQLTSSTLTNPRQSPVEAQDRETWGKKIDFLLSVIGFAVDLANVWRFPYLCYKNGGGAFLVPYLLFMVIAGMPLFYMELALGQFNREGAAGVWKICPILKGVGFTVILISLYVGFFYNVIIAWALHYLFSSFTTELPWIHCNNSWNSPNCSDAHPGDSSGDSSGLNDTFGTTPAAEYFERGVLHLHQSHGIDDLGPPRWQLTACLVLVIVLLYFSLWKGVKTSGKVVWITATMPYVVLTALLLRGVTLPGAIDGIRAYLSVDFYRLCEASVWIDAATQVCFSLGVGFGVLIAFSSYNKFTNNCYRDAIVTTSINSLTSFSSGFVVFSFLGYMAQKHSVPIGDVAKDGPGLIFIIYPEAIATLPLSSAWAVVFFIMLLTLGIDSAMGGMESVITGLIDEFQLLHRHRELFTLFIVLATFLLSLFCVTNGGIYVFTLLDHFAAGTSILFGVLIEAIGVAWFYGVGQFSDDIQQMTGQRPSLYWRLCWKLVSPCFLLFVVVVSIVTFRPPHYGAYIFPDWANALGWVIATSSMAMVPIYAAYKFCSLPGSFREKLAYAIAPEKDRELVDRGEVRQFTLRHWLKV
Method: as §1

[19] = molecular target: T16, V1a (h) (agonist radioligand) (Homo sapiens, UniProt P37288); settings: 1.0E-06 M; mean; read-out: % Inhibition of Control Specific Binding (1st, 2nd, Mean)
T16 construct: purchased DiscoverX KINOMEscan scanEDGE; Eurofins Cerep SafetyScreen87
Method: as §1

[20] = molecular target: T17, D1 (h) (antagonist radioligand) (Homo sapiens, UniProt P21728); settings: 1.0E-06 M, read-out: % Inhibition of Control Specific Binding (1st, 2nd, Mean)
T17 construct: purchased DiscoverX KINOMEscan scanEDGE; Eurofins Cerep SafetyScreen87
T17 sequence (P21728 whole entry): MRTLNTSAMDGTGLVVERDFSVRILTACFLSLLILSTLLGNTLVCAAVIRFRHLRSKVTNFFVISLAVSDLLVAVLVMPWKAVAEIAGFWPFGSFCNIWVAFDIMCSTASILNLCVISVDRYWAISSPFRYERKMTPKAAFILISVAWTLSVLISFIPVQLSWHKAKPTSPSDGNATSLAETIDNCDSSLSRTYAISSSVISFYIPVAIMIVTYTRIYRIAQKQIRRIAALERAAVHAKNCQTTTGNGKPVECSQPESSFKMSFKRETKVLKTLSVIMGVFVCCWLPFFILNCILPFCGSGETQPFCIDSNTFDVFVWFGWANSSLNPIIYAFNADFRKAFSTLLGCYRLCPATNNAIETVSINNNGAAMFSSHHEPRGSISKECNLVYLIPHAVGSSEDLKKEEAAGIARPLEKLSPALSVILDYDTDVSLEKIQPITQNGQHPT
Method: as §1

[21] = molecular target: T18, 5-HT transporter (h) (antagonist radioligand) (Homo sapiens, UniProt P31645); settings: 1.0E-06 M, read-out: % Inhibition of Control Specific Binding (1st, 2nd, Mean)
T18 construct: Eurofins Discovery (Cerep, France) SafetyScreen87 panel
T18 sequence (P31645 whole entry): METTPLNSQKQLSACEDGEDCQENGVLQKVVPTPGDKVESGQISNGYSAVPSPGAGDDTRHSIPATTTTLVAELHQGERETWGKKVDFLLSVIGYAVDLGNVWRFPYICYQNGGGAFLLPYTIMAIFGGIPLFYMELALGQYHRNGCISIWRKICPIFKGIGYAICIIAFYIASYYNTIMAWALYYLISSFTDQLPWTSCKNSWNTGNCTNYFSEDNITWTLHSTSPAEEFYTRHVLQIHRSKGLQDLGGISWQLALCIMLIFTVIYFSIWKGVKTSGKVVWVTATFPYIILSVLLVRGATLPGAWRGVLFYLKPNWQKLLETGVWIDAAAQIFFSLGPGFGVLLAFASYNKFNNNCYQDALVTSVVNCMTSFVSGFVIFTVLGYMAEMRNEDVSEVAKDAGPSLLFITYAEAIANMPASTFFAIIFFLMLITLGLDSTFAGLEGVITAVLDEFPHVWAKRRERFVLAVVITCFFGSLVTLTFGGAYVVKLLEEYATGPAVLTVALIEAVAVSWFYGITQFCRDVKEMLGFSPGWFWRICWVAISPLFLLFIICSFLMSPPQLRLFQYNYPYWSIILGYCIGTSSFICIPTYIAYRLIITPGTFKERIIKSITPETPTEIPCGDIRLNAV
Method: as §1

[22] = molecular target: T19, MC1 (agonist radioligand) (Mus musculus, UniProt Q01727); settings: 1.0E-06 M; mean; read-out: % Inhibition of Control Specific Binding (1st, 2nd, Mean)
T19 construct: purchased DiscoverX KINOMEscan scanEDGE; Eurofins Cerep SafetyScreen87
Method: as §1

[23] = molecular target: T20, delta (DOP) (h) (agonist radioligand) (Homo sapiens, UniProt P41143); settings: 1.0E-06 M; mean; read-out: % Inhibition of Control Specific Binding (1st, 2nd, Mean)
T20 construct: purchased DiscoverX KINOMEscan scanEDGE; Eurofins Cerep SafetyScreen87
Method: as §1

[24] = molecular target: T21, CCK1 (CCKA) (h) (agonist radioligand) (Homo sapiens, UniProt P32238); settings: 1.0E-06 M; read-out: % Inhibition of Control Specific Binding (1st, 2nd, Mean)
T21 construct: purchased DiscoverX KINOMEscan scanEDGE; Eurofins Cerep SafetyScreen87
Method: as §1

[25] = molecular target: T22, 5-HT2B (h) (agonist radioligand) (Homo sapiens, UniProt P41595); settings: 1.0E-06 M; mean; read-out: % Inhibition of Control Specific Binding (1st, 2nd, Mean)
T22 construct: purchased DiscoverX KINOMEscan scanEDGE; Eurofins Cerep SafetyScreen87
Method: as §1

[26] = molecular target: T23, alpha 2B (h) (antagonist radioligand) (Homo sapiens, UniProt P18089); settings: 1.0E-06 M, read-out: % Inhibition of Control Specific Binding (1st, 2nd, Mean)
T23 construct: purchased DiscoverX KINOMEscan scanEDGE; Eurofins Cerep SafetyScreen87
T23 sequence (P18089 whole entry): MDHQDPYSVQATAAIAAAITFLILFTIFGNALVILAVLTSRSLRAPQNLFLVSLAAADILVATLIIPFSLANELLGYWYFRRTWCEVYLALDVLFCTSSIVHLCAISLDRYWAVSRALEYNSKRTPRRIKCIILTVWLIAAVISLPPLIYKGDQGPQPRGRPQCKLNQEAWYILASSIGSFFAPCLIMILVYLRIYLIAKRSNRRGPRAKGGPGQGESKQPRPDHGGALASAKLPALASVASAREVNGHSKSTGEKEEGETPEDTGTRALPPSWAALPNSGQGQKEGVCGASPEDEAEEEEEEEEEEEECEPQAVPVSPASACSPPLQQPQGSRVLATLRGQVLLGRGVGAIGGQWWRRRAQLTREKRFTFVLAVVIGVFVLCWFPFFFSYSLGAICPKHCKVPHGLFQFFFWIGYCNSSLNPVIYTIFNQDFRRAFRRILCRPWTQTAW
Method: as §1

[27] = molecular target: T24, N neuronal alpha 4beta 2 (h) (agonist radioligand) (Homo sapiens, UniProt P17787+P43681); settings: 1.0E-06 M; mean; read-out: % Inhibition of Control Specific Binding (1st, 2nd, Mean)
T24 construct: purchased DiscoverX KINOMEscan scanEDGE; Eurofins Cerep SafetyScreen87
Method: as §1

[28] = test system: GABA transporter (antagonist radioligand); settings: 1.0E-06 M, read-out: % Inhibition of Control Specific Binding (1st, 2nd, Mean)
Method: as §1

hERG potassium channel = molecular target: T25, hERG potassium channel (Homo sapiens, UniProt Q12809); settings: human, probe [3H] Dofetilide, 1.0E-06 M; read-out: % Inhibition of Control Specific Binding (1st, 2nd, Mean)
T25 construct: Eurofins Discovery (Cerep, France) SafetyScreen87 panel
Method: as §1

[29] = molecular target: T26, AR(h) (agonist radioligand) (Homo sapiens, UniProt P10275, T878A); settings: 1.0E-06 M; mean; read-out: % Inhibition of Control Specific Binding (1st, 2nd, Mean)
T26 construct: purchased DiscoverX KINOMEscan scanEDGE; Eurofins Cerep SafetyScreen87
Method: as §1

[30] = test system: PCP (antagonist radioligand); settings: 1.0E-06 M; mean; read-out: % Inhibition of Control Specific Binding (1st, 2nd, Mean)
Method: as §1

[31] = 1.0E-06 M; read-out: % Inhibition of Control Specific Binding (1st, 2nd, Mean)
[32] = read-out: % Inhibition of Control Specific Binding (1st, 2nd, Mean); 1.0E-06 M

SMILES: CNc1ccc(NCCc2ccccc2OC)cc1.Cl [KDS12025, N^1-(2-methoxyphenethyl)-N^4-methylbenzene-1,4-diamine hydrochloride salt]
- activity [1]: 96.8% and 100%
- activity [2, 31]: 97%
- activity [2, 32]: 107%
- activity [3, 31]: 108%
- activity [3, 32]: 90.8%
- activity ([4]; mean): 96.5%
- activity [4]: 85.3% and 108%
- activity [5, 31]: 101%
- activity [5, 32]: 98.6%
- activity [6]: 91.8%
- activity ([7]; mean): 75.8%
- activity [7]: 75.3% and 76.3%
- activity [8]: 104%
- activity [9]: 74.3%
- activity [10]: 107%
- activity [11]: 76.4%
- activity ([12]; mean): 100%
- activity [12]: 98% and 103%
- activity ([13]; mean): 104%
- activity [13]: 106% and 101%
- activity ([14]; mean): 68.5%
- activity [14]: 66.8%
- activity ([15]; mean): 84%
- activity [15]: 74.8% and 93.2%
- activity [16]: 82.7%
- activity ([17]; mean): 65.4%
- activity [17]: 61.4% and 69.4%
- activity ([18]; mean): 107%
- activity [18]: 102% and 111%
- activity [19]: 110%
- activity ([20]; mean): 97.5%
- activity [20]: 91.1% and 104%
- activity ([21]; mean): 54.6%
- activity [21]: 62.9% and 46.4%
- activity [22]: 109%
- activity [23]: 79.7%
- activity [24]: 104%
- activity [25]: 63.9%
- activity ([26]; mean): 84.2%
- activity [26]: 81.9% and 86.6%
- activity [27]: 98.4%
- activity ([28]; mean): 96%
- activity [28]: 101% and 91.1%
- activity at 1 µM (hERG potassium channel): 70.3%
- activity [29]: 90.9%
- activity [30]: 92%
